{"source": "patent US20030092691A1", "about": "(priority 2001, published 2003)", "experiment": "Study of solubility of micronized progesterone in various oils (concentration at saturation)", "format": "physicochemical", "settings": "in refined olive oil; one hour stirring at room temperature, filtered 0.45 μm", "description": "The saturated solutions were then prepared as follows: The saturated solutions in each oil were maintained for one hour with stirring at room temperature, and were then filtered on a nylon filter syringe with a diameter of 25 mm, at 0.45 μm.", "data": [{"compound": "CC(=O)[C@H]1CC[C@H]2[C@@H]3CCC4=CC(=O)CC[C@]4(C)[C@H]3CC[C@]12C", "note": "[Micronized progesterone, progesterone]", "values": [{"measurement": "CONCENTRATION AT SATURATION", "result": 19560, "unit": "µg/mL"}]}]}
